Laboratory results as given in paper PMC3816525 (Investigational new drugs, 2011).

How the values were obtained:
[1] = human, in vivo
[2] = clinical; conditions: human, in vivo, AUC(0–24h)
[3] = cited from earlier work
[4] = clinical; conditions: human, in vivo, AUC(0–24h); remark: listed apart in the source
[5] = human, in vivo; remark: listed apart in the source
[6] = system: glioblastoma multiforme; conditions: two trials in glioblastoma multiforme; cited from earlier work
[7] = system: mantle cell lymphoma; conditions: phase II, single agent; cited from earlier work
[8] = system: advanced breast cancer; conditions: heavily pretreated advanced breast cancer; cited from earlier work

CCOc1cc2ncc(C#N)c(Nc3ccc(F)c(Cl)c3)c2cc1NC(=O)/C=C/CN(C)C [EKB-569]
Accumulation: AUC(0–24h) Day 6/Day 1 [1]: 1.78±0.56 | Accumulation: AUC(0–24h) Day 7/Day 6 [1]: 1.19±0.28 | Accumulation: AUC(0–24h) Day 9/Day 6 [1]: 1.40±0.33 | Increase of AUC(0-24h) on Day 7 [1]: about 19% | AUC(0-t) ([2]; Day 6): 378 ± 144 ng·h/mL | AUC(0-t) ([2]; Day 7): 426 ± 127 ng·h/mL | AUC(0-t) ([2]; Day 9): 493 ± 112 ng·h/mL | MTD, single agent ([3]; advanced solid tumors, DLT grade 3 diarrhea): 75 mg daily | Recommended dose in combination with FOLFIRI ([3]; in vivo): 25 mg daily

CCOc1cc2ncc(C#N)c(Nc3ccc(F)c(Cl)c3)c2cc1NC(=O)/C=C/CNC [N-desmethyl EKB-569]
AUC(0–24h), Day 6 [1]: 52.7 ± 61.2 ng·h/mL | AUC(0–24h), Day 7 [1]: 60.8 ± 52.8 ng·h/mL | AUC(0–24h), Day 9 [1]: 75.2 ± 51.0 ng·h/mL

CO[C@H]1C[C@@H]2CC[C@@H](C)[C@@](O)(O2)C(=O)C(=O)N2CCCC[C@H]2C(=O)O[C@H]([C@H](C)C[C@@H]2CC[C@@H](O)[C@H](OC)C2)CC(=O)[C@H](C)/C=C(\C)[C@@H](O)[C@@H](OC)C(=O)[C@H](C)C[C@H](C)/C=C/C=C/C=C/1C [sirolimus]
AUC(0-t) ([4]; Day 3): 437 ± 116 ng·h/mL | AUC(0-t) ([4]; po, 30 mg, Day 1): 348 ± 158 ng·h/mL | Accumulation: AUC(0–24h) Day 3/Day 1 [5]: 1.37±0.44 | Accumulation: AUC(0–24h) Day 15/Day 1 [5]: 0.99±0.27 | Accumulation: AUC(0–24h) Day 17/Day 3 [5]: 1.78±0.63 | Change of AUC(0-24h) on Day 15 compared to day 1 [5]: similar

CO[C@H]1C[C@@H]2CC[C@@H](C)[C@@](O)(O2)C(=O)C(=O)N2CCCC[C@H]2C(=O)O[C@H]([C@H](C)C[C@@H]2CC[C@@H](OC(=O)C(C)(CO)CO)[C@H](OC)C2)CC(=O)[C@H](C)/C=C(\C)[C@@H](O)[C@@H](OC)C(=O)[C@H](C)C[C@H](C)/C=C/C=C/C=C/1C [temsirolimus]
AUC(0-t) ([4]; Day 3): 68.3 ± 20.4 ng·h/mL | AUC(0-t) ([4]; po, 30 mg, Day 1): 83.9 ± 27.6 ng·h/mL | Change of AUC(0-24h) on Day 15 compared to day 1 [5]: 66% | TTP [6]: 9–38 weeks | Median TTP [7]: 6 months | Overall response rate [7]: 38–41% | Partial response rate [8]: 9.2%
